For experiment [1], the system named is BMNCs. Nature of the experiment: Histochemistry (Wright-Giemsa) and immunocytochemistry for erythroid cells (TER-119). The class given is cell-based, mouse. To be noted: 7 days culture. The method, then: In order to investigate whether QGR can stimulate the differentiation of hematopoietic stem cells into erythroid cells, the morphology of cells was observed and immunocytochemistry against TER-119, the marker of erythroid progenitors, was carried out. BMNCs were harvested 7 days after incubation with either rEpo (3 units/ml) or QGR (100 or 200 μM/ml) washed with PBS, re-suspended at a concentration of 2×10^5 cells/ml in PBS and subjected (100 μl/slide) to cytospin for 5 min at 1,000 rpm (Cytospin3; Shandon, ThermoElectron, Waltham, Mass., USA). All slides were fixed using cold methanol. Wright-Giemsa stain was performed for morphologic analysis. Immunocytochemistry against TER-119 was carried out for cellular lineage with 100-fold dilution according to the manufacturer's instruction using avidin biotinylated enzyme complex kit (VECTASTAIN, Vector Laboratories and Burlingame, Calif., USA).

Experiment [2] deals with BMNCs. The experiment is described as follows: Semisolid colonogenic assay (BFU-E colonies). Type of experiment: cell-based, mouse. The method, then:
To investigate the effects of QGR on erythroid lineage development in mouse HSCs and EPCs, the colonogenic assay was performed according to the manufacturer's instruction in triplicate by plating 2×10^5 cells/plate using methylcellulose stock solution in IMDM (R&D Systems) with cocktail (rIL-3 100 units/ml plus rSCF 5 units/ml plus rEpo 3 units/ml) or/and QGR (0, 100 or 200 μM/ml) in 35 mm-diameter cell culture plates. These plates were put in 100 mm-diameter plates with 3 ml of autoclaved distilled water and incubated at 37° C. in 5% CO2 humidity air. 14 days later, BFU-E colonies were counted under an Axiovert 40 CFL inverted microscope (Carl Zeiss, Oberkochen, Germany).

Experiment [3] has as its system BMNCs. The experiment is described as follows: Flow cytometric analysis for cells positive for TER-119. Conditions: 7 days, 100 or 200 μM/ml, dose-dependently, vs negative control. Type of experiment: cell-based, mouse. The method, then: To confirm the differentiation of mouse HSCs or EPCs into erythroid cells by QGR treatment, flow cytometric analysis for mouse anti-TER-119 was performed. BMNCs were cultured with either rEpo (3 units/ml) or QGR (100 or 200 μM/ml) in 6-well plates. Cells were harvested at day 7, washed with PBS, re-suspended at concentration of 1×10^5 cells/ml in 100 μl of PBS containing 0.02% sodium azide and 2% FBS, incubated with 10 μl of mouse anti-CD16/CD32 Ab (eBioScience, San Diego, Calif., USA) as Fc receptor blocker for 3 min at room temperature and incubated with PE-conjugated anti-TER-119 Ab for 20 min at 4° C. Flow cytometric analysis was performed using FACS Calibur (Becton Dickinson, Oxnard, Calif., USA) and the percentage of positively stained cells was determined.

Another experiment deals with LPS-induced Balb/c mice. To be noted: cited from earlier work.
The test system of experiment [4] is bone marrow failure mouse induced by busulphan (BU). Nature of the experiment: Flow cytometric analysis of bone marrow cells in BU bone marrow failure model. Type of experiment: in vivo, Balb/c mice. How it is done: (§1) Bone marrow failure model induced by administering busulphan (BU) was designed according to the procedures previously described by Molyneux et al (Cell Biol Toxicol 27, 13-40, 2011) and the scheme is shown in FIG. 8. BU (Sigma chemicals, Poole, Dorset, UK) was dissolved in acetone to a final concentration of 18.8 mg/ml, diluted five-fold with distilled water, and was intraperitoneally administered three times for 5 days with the dose of 0.2 ml BU solution per mouse. Equal amount of five-fold diluted acetone solution without BU was administered to vehicle control group. QGR was dissolved in dimethylsulfoxide and diluted with distilled water to a final concentration of 1.25%. Mice were orally administered every two days with QGR (0.25 mg/mouse) for 63 days. Seven or eight mice were sacrificed on days of 1, 5, 10, 16, 25, 40, 49, and 63 after BU administration and were investigated to confirm the effect of QGR to recover bone marrow failure.
In order to investigate whether QGR has an activity to recover bone marrow failure induced by BU administration, the expression of markers associated with hematopoietic stem cells/progenitors (Sca-1^+ or c-kit^+), bone mesenchymal stem/progenitor cells (Sca-1^+CD44^+), apoptotic hematopoietic stem cells (c-Kit^+7-aminoactinomycin D^+) were measured by flow cytometry. The retrieved BMNCs with the concentration of 0.6×10^6 cells/ml were precipitated by centrifugation, re-suspended in 100 μl of PBS containing 0.02% sodium azide and 2% FBS, and incubated with 10 μl of mouse anti-CD16/CD32 Ab (eBioScience, San Diego, Calif., USA) as FC receptor blocker for 3 min at room temperature. After that, monoclonal antibodies for c-kit (2B8, BD Pharmingen, USA), Sca-1 (D7, eBioscience), CD44 (IM7, eBioscience) were added and further incubated for 30 min under the temperature of 4° C. Isotype-matched irrelevant rat IgG2b-FITC (eBioscience) and isotype-matched irrelevant rat IgG2a-PE (eBioscience) were used as negative control. The flow cytometric analysis was carried out using FACS Calibur (Becton Dickinson, Oxnard, Calif., USA) and the percentage of positively stained cells was determined. The double staining of c-kit and 7-AAD (Calbiochem-Novabiochem, Nottingham, UK) was carried out according to the procedures previously described by Philpott et al (Exp Hematol, 23, 1642-1648, 1995).
(A flow cytometer gives signals particle by particle.)

The subject of experiment [5] is unopsonized zymosan-stimulated human monocytes. To be noted: cited from earlier work.
Experiment [6] has as its system bone marrow failure mouse induced by busulphan (BU). The experiment is described as follows: Histopathological features of bone marrow and osteoid formation in BU bone marrow failure model. The class given is in vivo, Balb/c mice. How it is done:
as §1
In order to confirm histological bone marrow damage induced by BU administration and to investigate whether QGR recovers the damaged bone marrow, histopathological features of H&E staining slide of the respective group's bone marrow were observed and compared to each other among the groups. In addition, the degree of sinusoid damage in bone marrow was graded as normal, hemorrhage or discontinuous, regressed vessel, assigned with numerical value and compared to each other among the groups. Moreover, in order to investigate the effect of QGR on the differentiation and maturation from mesenchymal stem cells to osteoblast, the formation of osteoid in humerus was comparatively analyzed. Goldner's trichrome staining was carried for osteoid and the stained area of the respective group was compared with each other after determining the stained area by using an image analyzer.

SMILES strings stand for the structures.

With `CC1OC(Oc2c(-c3ccc(O)c(O)c3)oc3cc(O)cc(O)c3c2=O)C(OC(=O)c2cc(O)c(O)c(O)c2)C(O)C1O` (stereo not drawn) [QGR, quercetin 3-O-β-(2″-galloyl)-rhamnopyranoside], in the experiment with BMNCs [1] (Wright-Giemsa staining), the “number of enucleated erythroid cells” value is reported as “increased”. For the same compound, the “TER-119+ cells (immunocytochemical analysis)” value with BMNCs [1] (vs negative control) is listed as “increased”. Besides, in the experiment with BMNCs [2] (cocktail (rIL-3, rSCF and rEpo) plus 200 μM QGR, p<0.01), the “formation and growth of BFU-E colonies compared with the positive control” value worked out at 1.43 fold. The “number of BFU-E colonies compared with negative control” value in the experiment on BMNCs [2] (day 14, 100 or 200 μM/ml for QGR, dose-dependent) was “significantly enhanced”. Also, the “number of BFU-E colony compared with positive control” value in the experiment with BMNCs [2] (day 14, QGR alone vs rIL-3+rSCF+rEpo) is “smaller than that of positive control”. In the experiment on BMNCs [3], the “ratio of TER-119+ cells (flow cytometric analysis)” value was “significantly increased”. The nitric oxide production result in the experiment on LPS-induced Balb/c mice was “inhibiting”. In addition, in experiment [4] (after 10 days of QGR administration, vs positive control group), the “number of cells positive for Sca-1 (HSPCs)” value is on record as “increased”. In addition, the “number of c-kit positive cells (HSPCs)” value in experiment [4] (at 10 days after QGR administration, significant difference from positive control at 16 days) was “increased”. Also, in experiment [4] (time course, remarkably decreased in positive control group), the “number of MSPCs (CD44+Sca-1+ cells)” value was “no change”. Further, the “number of apoptotic HSPCs” value in experiment [4] (time course, significantly increased from 10 days in positive control group) was “no change”. In addition, the superoxide production result in experiment [5] is recorded as “inhibiting”. The “degree of osteoid formation” value in experiment [6] (Goldner's trichrome staining, vs positive control group) was “actively formed”. Further, the “number of cells in bone marrow of humerus (cellularity)” value in experiment [6] (H&E, vs positive control group) is “recovered”. Further, in experiment [6] (day 10), the “number of regressed sinusoid” value is “significantly decreased”. Also, the “number of normal sinusoid” value in experiment [6] (day 10, vs positive control group (BU)) was “greater”. Also, in experiment [6] (day 63), the “number of normal sinusoids” value is reported as “increased”, the “numbers of hemorrhagic sinusoids” value is on record as “significantly decreased” and the “numbers of regressed sinusoids” value is reported as “significantly decreased”. In addition, the “area of osteoid formation” value in experiment [6] (from day 10 after QGR administration, vs positive control group) was “increased significantly”. The “number of megakaryocytes surrounding sinusoid” value in experiment [6] (from day 16 after QGR administration, vs positive control group) is “increased”. Also, the “sinusoidal endothelia in the bone marrow” value in experiment [6] (vs severely damaged sinusoids in positive control group) is reported as “recovered sinosoids”.

The record behind these values is patent US9289444B2, “Composition for promoting hematogenesis containing quercetin 3-O-β-(2″-galloyl)-rhamnopyranoside as active ingredient” (Chungbuk National University Industry Academic Cooperation …, priority 2011, dated 2016).
